From ChEMBL document CHEMBL1140590, “3-(2'-Bromopropionylamino)-benzamides as novel S-phase arrest agents” (Bioorg Med Chem Lett, 2007)

Columns and labels:
MOLT-3 = assay: Antiproliferative activity against human Molt3 cells; format: functional, cell-based
[1] = Antiproliferative activity against human DND1 cells; format: functional, cell-based
MCF7 = assay: Antiproliferative activity against human MCF7 cells; format: functional, cell-based
DU-145 = assay: Antiproliferative activity against human DU145 cells; format: functional, cell-based
PC-3 = assay: Antiproliferative activity against human PC3 cells; format: functional, cell-based
Bel-7402 = assay: Antiproliferative activity against human Bel7402 cells; format: functional, cell-based
CEM (Homo sapiens) [2] = assay: Cell cycle arrest in human CEM cells by accumulation at S phase after 6 to 12 hrs at 6.14 uM
CEM (Homo sapiens) [3] = assay: Cell cycle arrest in human CEM cells by accumulation at S phase after 24 hrs at 6.14 uM
CEM (Homo sapiens) [4] = assay: Cell cycle arrest in human CEM cells by accumulation at S phase after 6 hrs at 6.14 uM

COc1ccc(NC(=O)c2cccc(NC(=O)C(C)Br)c2)cc1 (stereo unspecified)
IC50 (MOLT-3): 800 nM

CCCCNC(=O)c1cccc(NC(=O)C(C)Br)c1 (stereo unspecified)
IC50 (MOLT-3): > 10000 nM

COc1cc(NC(=O)c2cccc(NC(=O)C(C)Br)c2)ccc1O (stereo unspecified)
IC50 [1]: 1220 nM
IC50 (MCF7): 860 nM
IC50 (DU-145): 6480 nM
IC50 (PC-3): 3130 nM
IC50 (MOLT-3): 510 nM
IC50 (Bel-7402): 5260 nM

CC(Br)C(=O)Nc1cccc(C(=O)Nc2ccc3c(c2)OCO3)c1 (stereo unspecified)
IC50 (MOLT-3): 620 nM

COc1cc(NC(=O)c2cccc(NC(=O)C(C)Br)c2)cc(OC)c1 (stereo unspecified)
IC50 (MOLT-3): 610 nM

COc1cc(NC(=O)c2cccc(NC(=O)C(C)Br)c2)cc(OC)c1OC (stereo unspecified)
IC50 [1]: 2260 nM
IC50 (MCF7): 1470 nM
IC50 (DU-145): 1930 nM
IC50 (PC-3): 2460 nM
IC50 (MOLT-3): 670 nM
IC50 (Bel-7402): 2640 nM

COc1ccc(C(=O)Nc2cc(OC)c(OC)c(OC)c2)cc1NC(=O)C(C)Br (stereo unspecified)
IC50 (MOLT-3): 4240 nM

CC(Br)C(=O)Nc1cccc(C(=O)NC(N)=O)c1 (stereo unspecified)
IC50 (MOLT-3): 1600 nM

CC(Br)C(=O)Nc1cccc(C(=O)Nc2ccc(F)cc2)c1 (stereo unspecified)
IC50 (MOLT-3): 2000 nM

CCOc1ccc(NC(=O)c2cc(NC(=O)C(C)Br)ccc2F)cc1 (stereo unspecified)
IC50 (MOLT-3): > 10000 nM

COc1cc(NC(=O)c2cc(NC(=O)C(C)Br)ccc2O)cc(OC)c1OC (stereo unspecified)
IC50 (MOLT-3): 1080 nM

COc1cc(NC(=O)c2cc(NC(=O)C(C)Br)ccc2F)ccc1O (stereo unspecified)
IC50 (MOLT-3): 850 nM

CCCNC(=O)c1cccc(NC(=O)C(C)Br)c1 (stereo unspecified)
IC50 (MOLT-3): 8940 nM

COc1ccc2nc(NC(=O)c3cccc(NC(=O)C(C)Br)c3)sc2c1 (stereo unspecified)
IC50 (MOLT-3): 1660 nM

COc1cc(C(=O)Nc2cccc(NC(=O)C(C)Br)c2)cc(OC)c1OC (stereo unspecified)
IC50 (MOLT-3): 5660 nM

COc1cc(NC(=O)c2ccc(NC(=O)C(C)Br)cc2)cc(OC)c1OC (stereo unspecified)
IC50 (MOLT-3): 1790 nM

COc1cc(NC(=O)c2ccccc2NC(=O)C(C)Br)cc(OC)c1OC (stereo unspecified)
IC50 (MOLT-3): 5720 nM

COc1cc(NC(=O)NC(=O)c2cccc(NC(=O)C(C)Br)c2)cc(OC)c1OC (stereo unspecified)
IC50 (MOLT-3): 4220 nM

COc1cc(NC(=O)c2cc(NC(=O)C(C)Br)ccc2F)cc(OC)c1OC (stereo unspecified)
IC50 [1]: 4160 nM
IC50 (MCF7): 2110 nM
IC50 (DU-145): 2030 nM
IC50 (PC-3): 2180 nM
IC50 (MOLT-3): 420 nM
IC50 (Bel-7402): 2050 nM

COc1cc(NC(=O)c2ccc(F)c(NC(=O)C(C)Br)c2)cc(OC)c1OC (stereo unspecified)
IC50 (MOLT-3): 2200 nM

COc1cc(NC(=O)c2ccc(Cl)c(NC(=O)C(C)Br)c2)cc(OC)c1OC (stereo unspecified)
IC50 (MOLT-3): 2250 nM

COc1ccc(NC(=O)c2cc(NC(=O)C(C)Br)ccc2F)cc1 (stereo unspecified)
IC50 [1]: 2560 nM
IC50 (MCF7): 1390 nM
IC50 (DU-145): 6450 nM
IC50 (PC-3): 2430 nM
IC50 (MOLT-3): 250 nM
IC50 (Bel-7402): 3370 nM

CC(Br)C(=O)Nc1cccc(C(=O)Nc2ccc3[nH]c4ccccc4c3c2)c1 (stereo unspecified)
IC50 (MOLT-3): 1510 nM

COc1cc(NS(=O)(=O)c2cccc(NC(=O)C(C)Br)c2)cc(OC)c1OC (stereo unspecified)
IC50 (MOLT-3): 1270 nM

COc1cc(NC(=O)c2cc(NC(=O)C(C)Br)ccc2F)ccn1 (stereo unspecified)
IC50 [1]: 2570 nM
IC50 (MCF7): 2200 nM
IC50 (DU-145): 2350 nM
IC50 (PC-3): 2420 nM
IC50 (MOLT-3): 500 nM
IC50 (Bel-7402): 2700 nM

COc1ccc(NC(=O)c2cc(NC(=O)C(C)Br)ccc2F)cc1OC (stereo unspecified)
IC50 (MOLT-3): 470 nM

CC(Br)C(=O)Nc1cccc(C(=O)NCCN(C)C)c1 (stereo unspecified)
IC50 (MOLT-3): > 10000 nM

CC(Br)C(=O)Nc1cccc(C(=O)N2CCN(C)CC2)c1 (stereo unspecified)
IC50 (MOLT-3): > 10000 nM

COc1ccc(NC(=O)c2cccc(NC(=O)C(C)Br)c2)cc1OC (stereo unspecified)
IC50 [1]: 1400 nM
IC50 (MCF7): 1230 nM
IC50 (DU-145): 1870 nM
IC50 (PC-3): 2360 nM
Activity (CEM (Homo sapiens) [2]): 62.7%
IC50 (MOLT-3): 120 nM
Activity (CEM (Homo sapiens) [3]): 61.9%
IC50 (Bel-7402): 2330 nM
Activity (CEM (Homo sapiens) [4]): 52.9%

COc1ccc(/C=C\c2cc(OC)c(OC)c(OC)c2)cc1O [COMBRETASTATIN A4]
IC50 [1]: 3 nM
IC50 (DU-145): 9 nM
IC50 (MOLT-3): 90 nM

COc1cc([C@@H]2c3cc4c(cc3[C@H](O)[C@H]3COC(=O)[C@H]23)OCO4)cc(OC)c1OC [PODOFILOX]
IC50 [1]: 12 nM
